# Values joined by “and” are separate entries in the source; they are usually repeats but may differ in a detail not shown here. Identical values can stand only once. Counter-ions that a name gives are not always drawn. Like-named read-outs stand apart in the source and are kept apart here.
# Assays:
# SUDHL10 [1] = test: Induction of cytotoxicity (Assay 6), SUDHL10
# Description: Assay 6 Induction of Cytotoxicity Upon Treatment of Cells with Selected Compounds
# Therefore, cytotoxicity assays were run in parallel in SUDHL5 and SUDHL10 cells.
# The different cell lines were plated in culture medium (RPMI 1640 [GIBCO #22400-089]supplemented with 10% Fetal Bovine Serum) at a density of 3,300 cells in 30 μL/well in a sterile, solid black, flat bottom, polystyrene, TC-treated 384-well microplate (Corning #3571) using Multidrop Combi Reagent Dispenser. As a control, medium without cells was also added to the plate. Cells were incubated in a humidified incubator at 37° C. overnight. […] Rim wells were excluded. The cells were incubated for 5 hours in a humidified incubator at 37° C. After this incubation, 30 μL of CellTiter-Glo® Luminescent Cell Viability reagent (Promega, G7573) was added to each well using the Multidrop Combi Reagent Dispenser, followed by 15 minutes incubation on a shaker at room temperature. Finally, luminescence was read at 0.1 ms, with a gain of 3000 using the PHERAstar FS microplate reader (BMG Labtech).
# SUDHL10 [2] = test: Induction of caspase-3/7 activity (Assay 4), SUDHL10; format: cell-based; details: SUDHL10 cells
# In short: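 Luminescent Caspase-Glo 3/7 read-out after a 3 h, 37 °C compound exposure of the DLBCL line SUDHL10. Values are background-corrected using medium-only wells.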
# BCL-XL = BCL-XL (Homo sapiens (Human), UniProt Q07817); test: Protein-protein interaction assay BCL-XL/Bad BH3 peptide (BCL-XL Assay, TR-FRET); format: binding; details: read-out: BCL-XL Assay IC50 (median)
# Sequence of BCL-XL (Q07817 other isoform, or with tags, fused parts or gaps): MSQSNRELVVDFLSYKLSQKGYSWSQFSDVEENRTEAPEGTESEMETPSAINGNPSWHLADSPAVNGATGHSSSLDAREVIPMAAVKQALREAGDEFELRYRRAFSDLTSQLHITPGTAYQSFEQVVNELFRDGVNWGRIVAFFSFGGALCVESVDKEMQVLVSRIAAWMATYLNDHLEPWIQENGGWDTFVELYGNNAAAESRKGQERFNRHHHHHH
# Description: Assay 2 Protein-Protein Interaction Assay: BCL-XL/Bad BH3 Peptide (BCL-XL Assay)
# The dose-dependent inhibition by the compounds described in this invention of the interaction between BCL-XL and the BH3 domain of Bad (both human) was determined using a steady state binding competition assay with time-resolved fluorescence energy transfer (TR-FRET) readout.
# (§1) For that, 100-fold concentrated DMSO solutions were prepared by serial dilutions (1:3.4) of a 2 mM stock solution in a clear, 384-well microtiter plate (Greiner Bio-One, Frickenhausen, Germany). From there, 50 nl were transferred in a dark test plate (Greiner Bio-One, Frickenhausen, Germany). […] This was followed by a 10-minute incubation step at 22° C. for pre-equilibration of the putative complex between His-BCL-XL and the compounds.
# The mixture was incubated in the dark for one hour at 22° C. and then overnight at 4° C. The formation of BCL-XL/Bad complexes was determined by measuring the resonance energy transfer of the anti-His- Eu-cryptate antibody to the streptavidin-XL665 present in the reaction.
# (§2) The resulting data (ratio) were normalized, taking 0% inhibition as the mean value of control measurements (usually 32 data points) where all reagents were included. In this case 50 nl DMSO were used instead of compounds. […] IC50 values were determined by regression analysis based on a 4 parameter equation (minimum, maximum, IC50, Hill; Y=Max+(Min−Max)/(1+(X/IC50)^Hill) using the Screener Software (Genedata).
# BCL-2 = BCL-2 (Homo sapiens (Human), UniProt P10415); test: Protein-protein interaction assay BCL-2/Bad BH3 peptide (BCL-2 Assay, TR-FRET); format: binding; details: read-out: BCL-2 Assay IC50 (median)
# Sequence of BCL-2 (P10415 other isoform, or with tags, fused parts or gaps): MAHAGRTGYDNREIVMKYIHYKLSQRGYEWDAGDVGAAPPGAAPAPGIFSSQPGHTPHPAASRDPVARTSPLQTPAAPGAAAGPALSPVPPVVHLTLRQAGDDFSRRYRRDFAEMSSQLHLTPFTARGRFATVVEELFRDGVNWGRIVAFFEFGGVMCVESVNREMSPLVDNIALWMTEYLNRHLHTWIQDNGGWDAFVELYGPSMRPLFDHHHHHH
# Description: The dose-dependent inhibition by the compounds described in this invention of the interaction between BCL-2 and the BH3 domain of Bad (both human) was determined using a steady state binding competition assay with time-resolved fluorescence energy transfer (TR-FRET) readout.
# as §1, with “His-BCL-2” for “His-BCL-XL”
# (§3) The mixture was incubated in the dark for one hour at 22° C. and then overnight at 4° C.
# as §2
# HMC-1-8 = test: Antiproliferation assay 7, HMC-1-8; format: cell-based; details: HMC-1-8 cells, CellTiter-Glo, read-out: Antiproli HMC-1-8 IC50 median
# In short: (§4)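 CellTiter-Glo luminescence readout; 72 h compound exposure, 37° C, humidified. Day 0 reference plate read at plating for time-zero baseline.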
# SUDHL5 [3] = test: Induction of cytotoxicity (Assay 6), SUDHL5
# SUDHL5 [4] = test: Antiproliferation assay 7, SUDHL5; format: cell-based; details: SUDHL5 cells, CellTiter-Glo, read-out: Antiproli SUDHL5 IC50 (median)
# In short: as §4
# AMO-1 = test: Antiproliferation assay 7, AMO-1; format: cell-based; details: AMO-1 cells, CellTiter-Glo, read-out: Antiproli AMO-1 IC50 median
# In short: as §4
# SUDHL5 [5] = test: Induction of caspase-3/7 activity (Assay 4), SUDHL5; format: cell-based; details: SUDHL5 cells
# In short: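 DLBCL cells treated with compounds for 3 hours at 37° C. Caspase-3/7 activity measured by Caspase-Glo 3/7 luminescence, with medium-only background subtracted.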
# MCL-1 = MCL-1 (Homo sapiens (Human), UniProt Q07820, K194A/K197A/R201A); test: Protein-protein interaction assay MCL-1/Noxa BH3 peptide (MCL-1 Assay, TR-FRET); format: binding; details: read-out: MCL-1 Assay IC50 (median)
# Sequence of MCL-1 (Q07820 whole entry K194A/K197A/R201A, looked up, the tested form may be a part): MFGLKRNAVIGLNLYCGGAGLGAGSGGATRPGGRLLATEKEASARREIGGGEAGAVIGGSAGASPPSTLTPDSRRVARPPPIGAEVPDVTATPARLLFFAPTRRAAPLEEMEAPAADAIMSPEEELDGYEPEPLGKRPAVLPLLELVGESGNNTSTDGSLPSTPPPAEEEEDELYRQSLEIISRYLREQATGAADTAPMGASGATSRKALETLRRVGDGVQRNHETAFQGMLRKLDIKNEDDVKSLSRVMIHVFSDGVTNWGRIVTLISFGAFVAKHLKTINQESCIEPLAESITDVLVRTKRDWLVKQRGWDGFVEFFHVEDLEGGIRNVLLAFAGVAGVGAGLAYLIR
# Description: The dose-dependent inhibition by the compounds described in this invention of the interaction between MCL-1 and the BH3 domain of Noxa (both human) was determined using a steady state binding competition assay with time-resolved fluorescence energy transfer (TR-FRET) readout. […] The MBP-MCL-1 was purchased from Beryllium (Bedford, Mass., USA). The expression and purification of this protein construct has been described elsewhere (DOI:10.1371/journal.pone.0125010). The Noxa BH3-derived peptide can be obtained from e.g. Biosyntan (Berlin, Germany).
# as §1, with “MBP-MCL-1” for “His-BCL-XL”
# as §3, §2
# MV-4-11 = test: Antiproliferation assay 7, MV-4-11; format: cell-based; details: Homo sapiens, MV4-11, 72 h, MV-4-11 cells, CellTiter-Glo, read-out: Antiproli MV-4-11 IC50 median
# In short: as §4
# SUDHL10 [6] = test: Antiproliferation assay 7, SUDHL10; format: cell-based; details: Homo sapiens, SU-DHL10, 72 h, SUDHL10 cells, CellTiter-Glo, read-out: Antiproli SUDHL10 IC50 (median)
# Description: Assessment of the Anti-Proliferative Effect of Compounds in Different Cell Lines
# The impact of compounds on the proliferation of different cell lines was assessed using the CellTiter-Glo® Luminescent Cell Viability reagent from Promega (G7573).
# In parallel, cells were plated in a reference (day 0) plate for time zero determination.
# Rim wells were excluded. The cells were incubated for 72 hours in a humidified incubator at 37° C. The day 0 plate was measured by adding 30 μL/well of CTG solution (CellTiter-Glo® Luminescent Cell Viability reagent, Promega G7573) to time zero wells in the reference plate followed by a 10 minutes incubation and luminescence reading at 0.1 ms. using the PHERAstar FS microplate reader (BMG Labtech).
# After 72 hours incubation, the treated plates were measured in the same way as the day 0 plate mentioned above.
# [7] = read-out: Cytotox SUDHL10 IC50 (median), SUDHL10 cells, 5 hours, CellTiter-Glo
# [8] = 3 hours, Caspase-Glo 3/7, read-out: Caspase SUDHL10 EC50 (median)
# [9] = read-out: Cytotox SUDHL5 IC50 (median), SUDHL5 cells, 5 hours, CellTiter-Glo
# [10] = 3 hours, Caspase-Glo 3/7, read-out: Caspase SUDHL5 EC50 (median)
# [11] = Homo sapiens, SU-DHL10, 5 h, read-out: Cytotox SUDHL10 IC50 (median), SUDHL10 cells, 5 hours, CellTiter-Glo
# [12] = Homo sapiens, SU-DHL10, 3 h, Caspase-Glo 3/7, read-out: Caspase SUDHL10 EC50 (median)
# [13] = Homo sapiens, SU-DHL-5, 5 h, read-out: Cytotox SUDHL5 IC50 (median), SUDHL5 cells, 5 hours, CellTiter-Glo
# [14] = Homo sapiens, SU-DHL-5, 3 h, Caspase-Glo 3/7, read-out: Caspase SUDHL5 EC50 (median)
SMILES,IC50 (SUDHL10 [1]; [7]),EC50 (SUDHL10 [2]; [8]),IC50 (BCL-XL),IC50 (BCL-2),IC50 (HMC-1-8; 72 hours),IC50 (SUDHL5 [3]; [9]),IC50 (SUDHL5 [4]; 72 hours),IC50 (AMO-1; 72 hours),EC50 (SUDHL5 [5]; [10]),IC50 (SUDHL10 [1]; [11]),IC50 (MCL-1),EC50 (SUDHL10 [2]; [12]),IC50 (MV-4-11),IC50 (HMC-1-8; 72 h),IC50 (SUDHL5 [3]; [13]),"IC50 (SUDHL5 [4]; Homo sapiens, SU-DHL-5, 72 h)","IC50 (AMO-1; Homo sapiens, AMO1, 72 h)",EC50 (SUDHL5 [5]; [14]),IC50 (SUDHL10 [6])
"CCc1c2c(nn1C)N(C)CCCCCn1c(C(=O)O)c(CCCOc3cccc4cc(F)ccc34)c3ccc(Cl)c-2c31 (single isomer, unassigned; enantiomer 2) [Example 79, 4-chloro-3-ethyl-7-{3-[(6-fluoronaphthalen-1-yl)oxy]propyl}-2,15-dimethyl-10,11,12,13,14,15-hexahydro-2H-pyrazolo[4′,3′:4,5][1,6]diazacycloundecino[3,2,1-hi]indole-8-carboxylic acid N-ethylethanamine Salt—Enantiomer 2]",5.1 µM,5.4 µM,> 20 µM,> 20 µM,14 µM,2200 nM,3800 nM,7.4 µM,2800 nM,,,,,,,,,,
"Cc1c2c(nn1C)CN(C)CCCCn1c(C(=O)O)c(CCCOc3cccc4cc(F)ccc34)c3ccc(Cl)c-2c31 (racemic) [Example 30, (rac)-4-chloro-7-{3-[(6-fluoronaphthalen-1-yl)oxy]propyl}-2,3,14-trimethyl-10,11,12,13,14,15-hexahydro-2H-pyrazolo[3′,4′:8,9][1,6]diazacycloundecino[10,11,1-hi]indole-8-carboxylic Acid]",,,,,,,,,,0.34 µM,0.92 nM,0.37 µM,293 nM,1.56 µM,210 nM,170 nM,0.415 µM,180 nM,150 nM
"CCc1c2c(nn1C)COC/C=C\Cn1c(C(=O)O)c(CCCOc3cccc4ccccc34)c3ccc(Cl)c-2c31 (racemic) [Example 18, (rac)-(11 Z)-4-chloro-3-ethyl-2-methyl-7-[3-(naphthalen-1-yloxy)propyl]-2,10,13,15-tetrahydropyrazolo[4′,3′:9,10][1,6]oxazacycloundecino[8,7,6-hi]indole-8-carboxylic Acid]",,,> 20 µM,> 20 µM and 18.7 µM and 20.2 µM,,,,,,1.3 µM,1.3 nM,1.3 µM,4710 nM,,1200 nM,1400 nM,,1100 nM,
"Cc1c2c(nn1C)N(C)CCCCCn1c(C(=O)O)c(CCCOc3cccc4ccccc34)c3ccc(Cl)c-2c31 (single isomer, unassigned) [Example 73, (−)-4-chloro-2,3,15-trimethyl-7-{3-[(naphthalen-1-yl)oxy]propyl}-10,11,12,13,14,15-hexahydro-2H-pyrazolo[4′,3′:4,5][1,6]diazacycloundecino[3,2,1-hi]indole-8-carboxylic acid]",26 µM,18 µM,> 20 µM,> 20 µM,24 µM,14000 nM,,18 µM,15000 nM,,16 nM,,,,,,,,
"CCc1c2c(nn1C)N(C)CCCCCn1c(C(=O)O)c(CCCOc3cccc4cc(F)ccc34)c3ccc(Cl)c-2c31 (racemic) [Example 77, (rac)-4-chloro-3-ethyl-7-{3-[(6-fluoronaphthalen-1-yl)oxy]propyl}-2,15-dimethyl-10,11,12,13,14,15-hexahydro-2H-pyrazolo[4′,3′:4,5][1,6]diazacycloundecino[3,2,1-hi]indole-8-carboxylic Acid]",,,> 20 µM,17 µM,,,,,,0.87 µM,1.1 nM,0.49 µM,,3.3 µM,450 nM,970 nM,0.53 µM,480 nM,
"Cc1c2c(nn1C)N(C)CCCCCn1c(C(=O)O)c(CCCOc3cccc4cc(F)ccc34)c3ccc(Cl)c-2c31 [Example 76, (−)-4-chloro-7-{3-[(6-fluoronaphthalen-1-yl)oxy]propyl}-2,3,15-trimethyl-10,11,12,13,14,15-hexahydro-2H-pyrazolo[4′,3′:4,5][1,6]diazacycloundecino[3,2,1-hi]indole-8-carboxylic acid-N-ethylethanamine salt]",7 µM,6.1 µM,> 20 µM,> 20 µM,13 µM,3000 nM,4600 nM,8.6 µM,3200 nM,,,,,,,,,,

# From patent publication US11447504B2, “Macrocyclic chlorine substituted indole derivatives” (Bayer Aktiengesellschaft, priority 2017, dated 2022)
